# Target: T1, Nav1.8 channels (Homo sapiens, UniProt Q9Y5Y9)
# T1 construct: expressed in transfected cells
# Assay: Manual patch-clamp, current of stably overexpressed Nav1.8 channels (resting state voltage program)
# Type: cell-based
# Settings: for inhibition at 0.01 µM: concentration of 10 nM; for inhibition at 0.01 µM / inhibition at 0.001 µM: read-out: Inhibition rate %; for inhibition at 0.001 µM: concentration of 1 nM
# Procedure: Experimental Example 1: Effects of test substances on current of stably overexpressed Nav1.8 channels monitored via manual patch-clamp technique
# Test compounds were dissolved in dimethyl sulfoxide (DMSO).
# The extracellular fluid was as follows: 140 mM NaCl, 3.5 mM KCl, 1 mM MgCl2•6H2O, 2 mM CaCl2•2H2O, 10 mM D-Glucose, 10 mM HEPES, 1.25 mM NaH2PO4•2H2O; the pH was adjusted to 7.4 with NaOH. The intracellular fluid was as follows: 50 mM CsCl, 10 mM NaCl, 10 mM HEPES, 60 mM CsF, 20 mM EGTA; the pH was adjusted to 7.2 with CsOH.
# 2. Experimental materials and instruments
# • 1) patch-clamp amplifier: EPC 10 (HEKA) • 2) micromanipulator: MP225 (Sutter Instrument) • 3) inverted microscope: MF53 (Mshot) • 4) micropipette puller: P97 (Sutter Instrument) • 5) capillary glass tube: BF150-86-10 (Sutter Instrument)
# 3. Experimental procedures
# • 1) After the compounds were prepared into solutions with specified concentrations, the solutions were sequentially added to the pipeline of the drug delivery system and labeled. • 2) The cell climbing coverslip was placed in the recording chamber, the appropriate cells were selected under the inverted microscope, and the position of the drug delivery tip was adjusted. • 3) A capillary glass tube was pulled into a suitable recording electrode using the micropipette puller, and then the electrode filled with the intracellular fluid was mounted in the microelectrode holder. The micromanipulator was adjusted under the inverted microscope to allow the recording electrode to contact the cell, and negative pressure was applied to the electrode to form a high-resistance seal. At this time, fast capacitance compensation was performed, and then the application of negative pressure was continued to break the cell membrane, forming a whole-cell recording mode. Finally, slow capacitance compensation was performed, and related parameters were recorded. • 4) After the cell current stabilized, administration was started. Each concentration of the drug was applied for five minutes or until the current stabilized before proceeding to monitor the next concentration. The drug solutions were administered via gravity-fed delivery, flowing through the recording chamber to act on the cells in an ascending order of concentration (from low to high). A peristaltic pump was employed for solution exchange in the recording process.
# 4 Test voltage program (resting state) and results
# After the formation of the whole-cell seal, the cell voltage was clamped at -120 mV, followed by depolarization to 0 mV using a square-wave pulse with a duration of 50 ms to elicit Nav1.8 currents. This procedure was repeated every 20 s to monitor the maximum current induced by the square wave. After the current stabilized, the test compounds were administered. Once the response stabilized, the intensity of the current block was calculated.
# T1 sequence (Q9Y5Y9 whole entry): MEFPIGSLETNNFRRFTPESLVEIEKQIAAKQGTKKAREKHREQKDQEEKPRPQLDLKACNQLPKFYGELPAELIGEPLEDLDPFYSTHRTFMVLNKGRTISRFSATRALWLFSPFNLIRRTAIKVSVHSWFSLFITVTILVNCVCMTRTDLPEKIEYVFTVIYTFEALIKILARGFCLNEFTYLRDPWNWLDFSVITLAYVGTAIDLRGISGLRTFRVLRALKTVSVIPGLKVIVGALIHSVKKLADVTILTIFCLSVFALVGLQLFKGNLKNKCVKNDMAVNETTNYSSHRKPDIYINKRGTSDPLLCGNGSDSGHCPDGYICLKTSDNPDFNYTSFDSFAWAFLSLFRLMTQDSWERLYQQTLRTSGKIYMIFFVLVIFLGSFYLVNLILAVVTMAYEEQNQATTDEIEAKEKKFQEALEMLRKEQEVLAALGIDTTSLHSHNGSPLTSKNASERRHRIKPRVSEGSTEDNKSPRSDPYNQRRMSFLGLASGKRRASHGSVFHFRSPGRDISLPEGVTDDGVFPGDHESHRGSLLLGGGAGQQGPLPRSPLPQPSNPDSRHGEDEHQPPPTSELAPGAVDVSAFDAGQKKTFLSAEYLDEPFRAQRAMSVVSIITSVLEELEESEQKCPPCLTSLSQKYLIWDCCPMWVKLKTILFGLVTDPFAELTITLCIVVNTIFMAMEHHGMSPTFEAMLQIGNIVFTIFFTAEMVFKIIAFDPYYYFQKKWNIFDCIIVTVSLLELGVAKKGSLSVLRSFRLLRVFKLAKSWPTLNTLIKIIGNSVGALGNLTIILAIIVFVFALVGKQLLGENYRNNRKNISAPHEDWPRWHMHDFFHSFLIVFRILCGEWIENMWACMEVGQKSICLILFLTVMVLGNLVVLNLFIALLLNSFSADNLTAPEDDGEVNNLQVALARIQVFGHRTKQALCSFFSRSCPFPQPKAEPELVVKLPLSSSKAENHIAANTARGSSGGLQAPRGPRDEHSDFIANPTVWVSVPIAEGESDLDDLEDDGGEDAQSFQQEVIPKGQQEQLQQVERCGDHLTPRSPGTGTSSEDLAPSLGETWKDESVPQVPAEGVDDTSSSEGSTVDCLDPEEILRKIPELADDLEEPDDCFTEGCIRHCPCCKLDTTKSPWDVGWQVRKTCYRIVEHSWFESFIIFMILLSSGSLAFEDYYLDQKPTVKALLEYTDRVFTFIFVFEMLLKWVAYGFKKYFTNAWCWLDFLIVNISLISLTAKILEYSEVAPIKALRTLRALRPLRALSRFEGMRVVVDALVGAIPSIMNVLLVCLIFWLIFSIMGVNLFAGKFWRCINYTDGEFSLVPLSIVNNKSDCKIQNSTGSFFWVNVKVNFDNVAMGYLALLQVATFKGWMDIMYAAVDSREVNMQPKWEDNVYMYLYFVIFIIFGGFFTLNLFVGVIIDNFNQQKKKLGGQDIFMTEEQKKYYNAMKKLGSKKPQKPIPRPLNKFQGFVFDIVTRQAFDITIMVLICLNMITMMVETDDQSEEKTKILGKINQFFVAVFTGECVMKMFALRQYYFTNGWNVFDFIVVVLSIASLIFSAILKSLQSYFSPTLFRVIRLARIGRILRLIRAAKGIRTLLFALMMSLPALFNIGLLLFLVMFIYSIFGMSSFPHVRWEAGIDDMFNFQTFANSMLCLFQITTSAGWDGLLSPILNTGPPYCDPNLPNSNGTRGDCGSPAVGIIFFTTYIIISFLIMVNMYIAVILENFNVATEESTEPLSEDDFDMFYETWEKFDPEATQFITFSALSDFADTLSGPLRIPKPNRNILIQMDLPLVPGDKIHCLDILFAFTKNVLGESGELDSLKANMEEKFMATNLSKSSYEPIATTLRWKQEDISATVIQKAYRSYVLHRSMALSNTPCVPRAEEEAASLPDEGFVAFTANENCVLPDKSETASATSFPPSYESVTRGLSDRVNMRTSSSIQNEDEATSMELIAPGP
inhibition at 0.01 µM [%],Compound,other results
76.9,"COc1c([C@@H]2C[C@](C)(C(F)(F)F)S[C@H]2C(=O)Nc2ccc3c(c2)B(O)OC3=O)ccc(F)c1F [a-6-A, (2R,3S,5R)-3-(3,4-difluoro-2-methoxyphenyl)-N-(1-hydroxy-3-oxo-1,3-dihydrobenzo[c][1,2]oxaborol-6-yl)-5-methyl-5-(trifluoromethyl)tetrahydrothiophene-2-carboxamide]",–
–,"COc1c([C@@H]2C[C@](C)(C(F)(F)F)S[C@H]2C(=O)Nc2ccc3c(c2)C(=O)NC3=O)ccc(F)c1F [a-23-A, (2R,3S,5R)-3-(3,4-difluoro-2-methoxyphenyl)-N-(1,3-dioxoisoindol-5-yl)-5-methyl-5-(trifluoromethyl)tetrahydrothiophene-2-carboxamide]",inhibition at 0.001 µM: 56.5%
77.9,"COC(=O)c1cc(NC(=O)[C@@H]2S[C@@](C)(C(F)(F)F)C[C@H]2c2ccc(F)c(F)c2OC)ccc1B(O)O [Compound 101-A, (4-((2R,3S,5R)-3-(3,4-difluoro-2-methoxyphenyl)-5-methyl-5-(trifluoromethyl)tetrahydrothiophene-2-carboxamido)-2-(methoxycarbonyl)phenyl)boronic acid]",–
97.9,"COc1c(C2CC(C)(C(F)(F)F)SC2C(=O)Nc2cc[nH]c(=O)c2)ccc(F)c1F (stereo not shown) [Compound 170, 3-(3,4-difluoro-2-methoxyphenyl)-5-methyl-N-(2-oxo-1,2-dihydropyridin-4-yl)-5-(trifluoromethyl)tetrahydrothiophene-2-carboxamide]",–
86,"COc1c(C2CC(C)(C(F)(F)F)SC2C(=O)Nc2ccc(=O)n(C)c2)ccc(F)c1F (stereo not shown) [Compound 178, 3-(3,4-difluoro-2-methoxyphenyl)-5-methyl-N-(1-methyl-6-oxo-1,6-dihydropyridin-3-yl)-5-(trifluoromethyl)tetrahydrothiophene-2-carboxamide]",–
97.7,"COc1c(C2CC(C)(C(F)(F)F)SC2C(=O)Nc2ccc(F)c(S(C)(=N)=O)c2)ccc(F)c1F (stereo not shown) [Compound 227, 3-(3,4-difluoro-2-methoxyphenyl)-N-(4-fluoro-3-(S-methylsulfonimidoyl)phenyl)-5-methyl-5-(trifluoromethyl)tetrahydrothiophene-2-carboxamide]",–
92.7,"COc1c([C@@H]2C[C@](C)(C(F)(F)F)S[C@H]2C(=O)Nc2ccc(B(O)O)c(F)c2)ccc(F)c1F [Compound 88-A, (4-((2R,3S,5R)-3-(3,4-difluoro-2-methoxyphenyl)-5-methyl-5-(trifluoromethyl)tetrahydrothiophene-2-carboxamido)-2-fluorophenyl)boronic acid]",–
–,"COc1c([C@@H]2C[C@](C)(C(F)(F)F)S[C@H]2C(=O)Nc2ccc(F)c(/C=C(\C#N)C(N)=O)c2)ccc(F)c1F [a-89-A, (2R,3S,5R)-N-(3-((E)-3-amino-2-cyano-3-oxopropen-1-yl)-4-fluorophenyl)-3-(3,4-difluoro-2-methoxyphenyl)-5-methyl-5-(trifluoromethyl)tetrahydrothiophene-2-carboxamide]",inhibition at 0.001 µM: 51.5%
83.7,"COc1c([C@@H]2C[C@](C)(C(F)(F)F)S[C@H]2C(=O)Nc2ccc(SC)nc2)ccc(F)c1F [Compound 231-A, (2R,3S,5R)-3-(3,4-difluoro-2-methoxyphenyl)-5-methyl-N-(6-(methylthio)pyridin-3-yl)-5-(trifluoromethyl)tetrahydrothiophene-2-carboxamide]",–
65.5,"COc1c([C@@H]2C[C@](C)(C(F)(F)F)S[C@H]2C(=O)Nc2ccc(F)c(C/C(C#N)=C(\C)O)c2)ccc(F)c1F [a-17-A, (2R,3S,5R)-N-(3-((Z)-2-cyano-3-hydroxybut-2-enyl)-4-fluorophenyl)-3-(3,4-difluoro-2-methoxyphenyl)-5-methyl-5-(trifluoromethyl)tetrahydrothiophene-2-carboxamide]",–
87.4,"COc1c([C@@H]2C[C@](C)(C(F)(F)F)S[C@H]2C(=O)Nc2cccc(S(=O)(=O)N(C)C)c2)ccc(F)c1F [Compound 240-A, (2R,3S,5R)-3-(3,4-difluoro-2-methoxyphenyl)-N-(3-(N,N-dimethylsulfamoyl)phenyl)-5-methyl-5-(trifluoromethyl)tetrahydrothiophene-2-carboxamide]",–
–,"COc1c([C@@H]2C[C@](C)(C(F)(F)F)S[C@H]2C(=O)Nc2ccnc(-c3ncon3)c2)ccc(F)c1F [a-48-A, (2R,3S,5R)-3-(3,4-difluoro-2-methoxy-phenyl)-5-methyl-N-[2-(1,2,4-oxadiazol-3-yl)-4-pyridyl]-5-(trifluoromethyl)tetrahydrothiophene-2-carboxamide]",inhibition at 0.001 µM: 71.9%
–,"COc1c([C@@H]2C[C@](C)(C(F)(F)F)S[C@H]2C(=O)Nc2ccnc(SC#N)c2)ccc(F)c1F [a-80-A, (2R,3S,5R)-3-(3,4-difluoro-2-methoxyphenyl)-5-methyl-N-(2-thiocyanatopyridin-4-yl)-5-(trifluoromethyl)tetrahydrothiophene-2-carboxamide]",IC50: 0.19 nM
90.2,"COc1c([C@@H]2C[C@](C)(C(F)(F)F)S[C@H]2C(=O)Nc2ccc(=O)n(C)c2)ccc(F)c1F [Compound 178-A, (2R,3S,5R)-3-(3,4-difluoro-2-methoxyphenyl)-5-methyl-N-(1-methyl-6-oxo-1,6-dihydropyridin-3-yl)-5-(trifluoromethyl)tetrahydrothiophene-2-carboxamide]",–
89.7,"COc1c(C2CC(C)(C(F)(F)F)SC2C(=O)Nc2ccc(B(O)O)c(Br)c2)ccc(F)c1F (stereo not shown) [Compound 93, (2-bromo-4-(3-(3,4-difluoro-2-methoxyphenyl)-5-methyl-5-(trifluoromethyl)tetrahydrothiophene-2-carboxamido)phenyl)boronic acid]",–
80.2,"COc1c([C@@H]2C[C@](C)(C(F)(F)F)S[C@H]2C(=O)Nc2ccc(=O)[nH]n2)ccc(F)c1F [a-3-A, (2R,3S,5R)-3-(3,4-difluoro-2-methoxyphenyl)-5-methyl-N-(6-oxo-1,6-dihydropyridazin-3-yl)-5-(trifluoromethyl)tetrahydrothiophene-2-carboxamide]",–
–,"COc1c([C@@H]2C[C@](C)(C(F)(F)F)S[C@H]2C(=O)Nc2ccc(B3OC(C)(C)C(C)(C)O3)c(F)c2)ccc(F)c1F [Compound 229-A, (2R,3S,5R)-3-(3,4-difluoro-2-methoxyphenyl)-N-(3-fluoro-4-(4,4,5,5-tetramethyl-1,3,2-dioxaborolan-2-yl)phenyl)-5-methyl-5-(trifluoromethyl)tetrahydrothiophene-2-carboxamide]",inhibition at 0.001 µM: 48.6%
–,"COc1c([C@@H]2C[C@](C)(C(F)(F)F)S[C@H]2C(=O)Nc2ccnc(C3(C#N)CC3)c2)ccc(F)c1F [a-73-A, (2R,3S,5R)-N-(2-(1-cyanocyclopropyl)pyridin-4-yl)-3-(3,4-difluoro-2-methoxyphenyl)-5-methyl-5-(trifluoromethyl)tetrahydrothiophene-2-carboxamide]",inhibition at 0.001 µM: 58.8%
85.3,"COc1c(C2CC(C)(C(F)(F)F)SC2C(=O)Nc2cccc(S(=O)(=O)NC#N)c2)ccc(F)c1F (stereo not shown) [Compound a-9, N-(3-(N-cyanosulfamoyl)phenyl)-3-(3,4-difluoro-2-methoxyphenyl)-5-methyl-5-(trifluoromethyl)tetrahydrothiophene-2-carboxamide]",–
86.5,"COc1c(C2CC(C)(C(F)(F)F)SC2C(=O)Nc2ccn(C)c(=O)c2)ccc(F)c1F (stereo not shown) [Compound 172, 3-(3,4-difluoro-2-methoxyphenyl)-5-methyl-N-(1-methyl-2-oxo-1,2-dihydropyridin-4-yl)-5-(trifluoromethyl)tetrahydrothiophene-2-carboxamide]",–
–,"COc1c([C@@H]2C[C@](C)(C(F)(F)F)S[C@H]2C(=O)Nc2cccc(NS(=O)(=O)CC(C)N)c2)ccc(F)c1F (stereo partly drawn) [a-56-A, (2R,3S,5R)-N-(3-((2-aminopropyl)sulfonamido)phenyl)-3-(3,4-difluoro-2-methoxyphenyl)-5-methyl-5-(trifluoromethyl)tetrahydrothiophene-2-carboxamide]",inhibition at 0.001 µM: 66.4%
–,"COc1c([C@@H]2C[C@](C)(C(F)(F)F)S[C@H]2C(=O)Nc2cccc(N=[N+]=[N-])c2)ccc(F)c1F [a-29-A, (2R,3S,5R)-N-(3-azidophenyl)-3-(3,4-difluoro-2-methoxyphenyl)-5-methyl-5-(trifluoromethyl)tetrahydrothiophene-2-carboxamide]",IC50: 0.005 nM

# — patent publication EP4813993A1, “COMPOUND, PREPARATION METHOD THEREFOR, AND USE THEREOF” (Sichuan Kelun Pharmaceutical Research Institute Co., Ltd., priority 2023, dated 2025)
